Source: BigSolDB 2.1

Question: What does the source list for CO/N=C(\C(=O)N[C@@H]1C(=O)N2C(C(=O)[O-])=C(COC(C)=O)CS[C@H]12)c1csc(N)n1.[Na+]?
Answer: solubility (mole fraction) (in DMF, 278.15 K): 0.0407; solubility (mole fraction) (in DMF, 280.15 K): 0.0413; solubility (mole fraction) (in DMF, 283.15 K): 0.0436; solubility (mole fraction) (in DMF, 285.15 K): 0.0462; solubility (mole fraction) (in DMF, 288.15 K): 0.0474; solubility (mole fraction) (in DMF, 290.15 K): 0.0537; solubility (mole fraction) (in DMF, 293.15 K): 0.057; solubility (mole fraction) (in DMF, 295.15 K): 0.06; solubility (mole fraction) (in DMF, 298.15 K): 0.0662; solubility (mole fraction) (in DMF, 300.15 K): 0.069; solubility (mole fraction) (in DMF, 303.15 K): 0.0757; solubility (mole fraction) (in DMF, 305.15 K): 0.0785; solubility (mole fraction) (in DMF, 308.15 K): 0.0845; solubility (mole fraction) (in DMSO, 293.15 K): 0.0738; solubility (mole fraction) (in DMSO, 295.15 K): 0.0744; solubility (mole fraction) (in DMSO, 297.15 K): 0.0751; solubility (mole fraction) (in DMSO, 298.15 K): 0.0755; solubility (mole fraction) (in DMSO, 300.15 K): 0.077; solubility (mole fraction) (in DMSO, 302.15 K): 0.0777; solubility (mole fraction) (in DMSO, 303.15 K): 0.0779; solubility (mole fraction) (in DMSO, 305.15 K): 0.0783; solubility (mole fraction) (in DMSO, 307.15 K): 0.0785; solubility (mole fraction) (in DMSO, 308.15 K): 0.0788; solubility (mole fraction) (in NMP, 278.15 K): 0.000254; solubility (mole fraction) (in NMP, 280.15 K): 0.000935; solubility (mole fraction) (in NMP, 283.15 K): 0.00152; solubility (mole fraction) (in NMP, 285.15 K): 0.00192; solubility (mole fraction) (in NMP, 288.15 K): 0.00279; solubility (mole fraction) (in NMP, 290.15 K): 0.00383; solubility (mole fraction) (in NMP, 293.15 K): 0.00524; solubility (mole fraction) (in NMP, 295.15 K): 0.00869; solubility (mole fraction) (in NMP, 298.15 K): 0.0118; solubility (mole fraction) (in NMP, 300.15 K): 0.038; solubility (mole fraction) (in NMP, 303.15 K): 0.0737; solubility (mole fraction) (in NMP, 305.15 K): 0.083; solubility (mole fraction) (in NMP, 308.15 K): 0.103; solubility (mole fraction) (in formamide, 278.15 K): 0.0483; solubility (mole fraction) (in formamide, 280.15 K): 0.0503; solubility (mole fraction) (in formamide, 283.15 K): 0.053; solubility (mole fraction) (in formamide, 285.15 K): 0.0562; solubility (mole fraction) (in formamide, 288.15 K): 0.0596; solubility (mole fraction) (in formamide, 290.15 K): 0.0615; solubility (mole fraction) (in formamide, 293.15 K): 0.0644; solubility (mole fraction) (in formamide, 295.15 K): 0.0652; solubility (mole fraction) (in formamide, 298.15 K): 0.0674; solubility (mole fraction) (in formamide, 300.15 K): 0.0688; solubility (mole fraction) (in formamide, 303.15 K): 0.0702; solubility (mole fraction) (in formamide, 305.15 K): 0.0719; solubility (mole fraction) (in formamide, 308.15 K): 0.0733; solubility (mole fraction) (in water, 278.15 K): 0.018; solubility (mole fraction) (in water, 280.15 K): 0.0181; solubility (mole fraction) (in water, 282.15 K): 0.0182; solubility (mole fraction) (in water, 283.15 K): 0.0183; solubility (mole fraction) (in water, 285.15 K): 0.0184; solubility (mole fraction) (in water, 287.15 K): 0.0184; solubility (mole fraction) (in water, 288.15 K): 0.0184; solubility (mole fraction) (in water, 290.15 K): 0.0185; solubility (mole fraction) (in water, 292.15 K): 0.0186; solubility (mole fraction) (in water, 293.15 K): 0.0188; solubility (mole fraction) (in water, 295.15 K): 0.0188; solubility (mole fraction) (in water, 297.15 K): 0.0189; solubility (mole fraction) (in water, 298.15 K): 0.0189
